Assay results as given in the supplement of paper PMC10307832.

How the values were obtained:
Assay in all cases: relative viability (nuclei count vs DMSO), 5 days (fraction); higher = more cells survive
[1] = compound: CN(C)C[C@@H]1CCn2cc(c3ccccc32)C2=C(C(=O)NC2=O)c2cn(c3ccccc23)CCO1 [Ruboxistaurin]
Method in brief: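 Following overnight incubation at 37 °C, lung cancer cell lines in 1536-well plates were pinned with five library-drug doses (not always all listed) in √10 steps on vehicle-anchored plates. The cells then spent 5 days without medium change before a combined fix, permeabilisation and Hoechst stain, 4× imaging and MetaXpress nuclear counts. Viability is the treated-to-vehicle ratio of nuclei, taken as the median across plates. Only plates with control CV below 25% and at least one doubling passed.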

[2] = compound: CN(C)C[C@@H]1CCn2cc(c3ccccc32)C2=C(C(=O)NC2=O)c2cn(c3ccccc23)CCO1 [Ruboxistaurin] + CC(=O)Nc1cccc(-n2c(=O)n(C3CC3)c(=O)c3c(Nc4ccc(I)cc4F)n(C)c(=O)c(C)c32)c1 [Trametinib] (partner 0.02 µM)
Method in brief: (§1)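 One day after seeding in 1536-well plates, lung cancer cell lines were dosed by pin tool. Dosing was either single-drug or a fixed anchor-drug dose plus five library-drug doses (not always all listed) in √10 steps. After 5 days, nuclei were stained in one fix-and-stain step and counted on 4× images, and relative viability is the nuclei count of treated wells over that of vehicle wells, given as the median of duplicate plates.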

[3] = compound: CN(C)C[C@@H]1CCn2cc(c3ccccc32)C2=C(C(=O)NC2=O)c2cn(c3ccccc23)CCO1 [Ruboxistaurin] + NC(=O)Nc1cc(-c2cccc(F)c2)sc1C(=O)N[C@H]1CCCNC1 [AZD7762] (partner 0.2 µM)
Method in brief: as §1

[4] = compound: CN(C)C[C@@H]1CCn2cc(c3ccccc32)C2=C(C(=O)NC2=O)c2cn(c3ccccc23)CCO1 [Ruboxistaurin] + CS(=O)(=O)CCNCc1ccc(-c2ccc3ncnc(Nc4ccc(OCc5cccc(F)c5)c(Cl)c4)c3c2)o1 [Lapatinib] (partner 2 µM)
Method in brief: as §1

[5] = compound: CN(C)C[C@@H]1CCn2cc(c3ccccc32)C2=C(C(=O)NC2=O)c2cn(c3ccccc23)CCO1 [Ruboxistaurin] + O=C(CCCCCCC(=O)Nc1ccccc1)NO [Vorinostat] (partner 1 µM)
Method in brief: as §1

Cell Line | relative viability ([1]; 0.08 µM) | relative viability ([1]; 0.8 µM) | relative viability ([1]; 2.53 µM) | relative viability ([1]; 8 µM) | relative viability ([2]; first compound 0.08 µM) | relative viability ([2]; first compound 0.8 µM) | relative viability ([2]; first compound 2.53 µM) | relative viability ([2]; first compound 8 µM) | relative viability ([3]; first compound 0.08 µM) | relative viability ([3]; first compound 0.8 µM) | relative viability ([3]; first compound 2.53 µM) | relative viability ([3]; first compound 8 µM) | relative viability ([4]; first compound 0.08 µM) | relative viability ([4]; first compound 0.8 µM) | relative viability ([4]; first compound 2.53 µM) | relative viability ([4]; first compound 8 µM) | relative viability ([5]; first compound 0.08 µM) | relative viability ([5]; first compound 0.8 µM) | relative viability ([5]; first compound 2.53 µM) | relative viability ([5]; first compound 8 µM)
NCI-H23 | 0.974 | 0.892 | 1.03 | 0.886 | 0.375 | 0.346 | 0.409 | 0.32 | 0.234 | 0.262 | 0.185 | 0.279 | 1.38 | 0.97 | 1.21 | 0.819 | 0.425 | 0.564 | 0.548 | 0.453
NCI-H1395 | 1.05 | 0.844 | 1.01 | 0.882 | 1.15 | 0.846 | 0.988 | 1.09 | 0.41 | 0.411 | 0.419 | 0.418 | 1.01 | 1.06 | 1.2 | 0.879 | 0.813 | 0.739 | 0.707 | 0.688
NCI-H1666 | 1.09 | 1.02 | 1.04 | 0.968 | 0.903 | 0.795 | 0.865 | 0.877 | 0.855 | 0.992 | 0.921 | 0.892 | 0.596 | 0.529 | 0.783 | 0.659 | 0.998 | 1.1 | 1.08 | 1.1
NCI-H2405 | 1.17 | 0.97 | 1.01 | 1.01 | 0.727 | 0.597 | 0.727 | 0.616 | 0.817 | 0.701 | 0.8 | 0.715 | 1.3 | 1.01 | 1.19 | 1.05 | 1.08 | 0.988 | 0.97 | 0.982
HCC-78 | 1.11 | 0.996 | 1.1 | 0.949 | 0.886 | 0.711 | 0.738 | 0.912 | 0.735 | 0.549 | 0.715 | 0.536 | 0.745 | 0.717 | 0.774 | 0.944 | 0.419 | 0.368 | 0.425 | 0.475
NCI-H2170 | 0.994 | 0.875 | 1.06 | 0.953 | 0.932 | 0.828 | 0.931 | 0.928 | 0.901 | 0.783 | 0.95 | 0.964 | 0.243 | 0.241 | 0.263 | 0.251 | 0.856 | 0.775 | 0.854 | 0.855
NCI-H1793 | 1.05 | 0.749 | 1.27 | 1.08 | 0.444 |  | 0.497 | 0.517 | 0.654 |  | 0.476 | 0.339 | 0.845 | 0.641 | 0.909 | 0.841 | 0.87 |  | 1.08 | 0.821
HCC-366 | 0.989 | 0.95 | 1.02 | 1.05 | 0.393 | 0.331 | 0.349 | 0.321 | 0.187 | 0.284 | 0.27 | 0.178 | 1.12 | 0.988 | 1.02 | 1.01 | 0.407 | 0.434 | 0.374 | 0.307
NCI-H1651 | 1.02 | 0.983 | 1 | 1.03 | 0.891 | 0.736 | 0.805 | 0.858 | 0.495 | 0.476 | 0.45 | 0.421 | 0.828 | 0.697 | 0.843 | 0.717 | 0.54 | 0.573 | 0.611 | 0.499
LC-2-ad | 1.06 | 0.935 | 1.04 | 1.08 | 0.953 | 0.877 | 0.928 | 0.984 | 0.882 | 0.807 | 0.862 | 0.813 | 1.1 | 0.889 | 1.02 | 1.02 | 0.747 | 0.668 | 0.694 | 0.694
HCC-827 | 1.05 | 1.03 | 1.09 | 1.09 | 0.555 | 0.499 | 0.517 | 0.533 | 0.26 | 0.199 | 0.239 | 0.201 | 0.243 | 0.191 | 0.184 | 0.165 | 0.824 | 0.828 | 0.839 | 0.837
LOU-NH91 | 1.09 | 0.939 | 1.01 | 0.927 | 0.802 | 0.751 | 0.807 | 0.773 | 0.823 | 0.74 | 0.792 | 0.726 | 0.785 | 0.72 | 0.851 | 0.698 | 0.954 | 0.868 | 0.958 | 0.878
LU99A | 0.956 | 0.858 | 1.04 | 0.852 | 0.492 | 0.509 | 0.508 | 0.472 | 0.385 | 0.312 | 0.349 | 0.289 | 1.09 | 0.967 | 0.94 | 0.761 | 0.497 | 0.442 | 0.433 | 0.416
HOP-62 | 1.05 | 1.02 | 1.11 | 1.16 | 0.401 | 0.33 | 0.361 | 0.361 | 0.779 | 0.694 | 0.875 | 0.894 | 0.995 | 0.978 | 0.997 | 1 | 0.669 | 0.648 | 0.686 | 0.679
